# Test results reported in patent publication US11254688B2 (Boehringer Ingelheim International GmbH, priority 2018, dated 2022).
# Where a name gives a salt, the structure may show the parent alone.
# Target: T1, hGOAT (Homo sapiens, UniProt Q96T53)
# T1 construct: expressed in transfected cells; host or cells: HEK293 (Hek293 hGOAT/PPGhrl Clone #1B8)
# T1 sequence (Q96T53 1-435): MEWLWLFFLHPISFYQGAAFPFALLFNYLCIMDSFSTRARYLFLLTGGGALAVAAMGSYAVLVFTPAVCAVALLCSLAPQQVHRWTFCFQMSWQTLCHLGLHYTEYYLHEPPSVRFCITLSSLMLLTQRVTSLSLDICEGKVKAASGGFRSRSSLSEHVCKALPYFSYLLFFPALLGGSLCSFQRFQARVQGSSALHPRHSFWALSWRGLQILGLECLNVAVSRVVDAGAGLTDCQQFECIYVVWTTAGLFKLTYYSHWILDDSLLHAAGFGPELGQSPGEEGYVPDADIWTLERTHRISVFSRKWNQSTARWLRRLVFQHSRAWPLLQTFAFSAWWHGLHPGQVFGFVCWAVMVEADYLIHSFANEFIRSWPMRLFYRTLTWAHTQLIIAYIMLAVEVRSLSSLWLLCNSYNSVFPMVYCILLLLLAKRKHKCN
# Assay: Determination of hGOAT activity in HEK293 cells after incubation with test compound (acyl-ghrelin ELISA)
# Assay type: cell-based
# Settings: HEK293 cells stably transfected with preproghrelin and human GOAT; octanoate-BSA 100 μM; 5 hours incubation; acyl-ghrelin in medium by ELISA; 8 compound concentrations
# Procedure: Determination of hGOAT Activity in HEK293 Cells after Incubation with Test Compound
# HEK293 cells stably transfected with two expression vectors, one coding for preproghrelin cDNA and a second for the expression of human GOATcDNA are used as a cellular model. After feeding the cells with octanoic acid for 5 hours, acyl-ghrelin is measured in cell culture medium by an ELISA procedure.
# Cellline: Hek293 hGOAT/PPGhrl Clone #1B8Sodium octanoate, Sigma, Cat.-No. C5038
# BD Poly-D-Lysin 384-well Plates, black-clear polystyrene BD Bioscience Cat.-No. […] ELISA human acylated Ghrelin Kit purchased from Bertin Pharman (detailed composition of buffers e.g. wash-puffer, ELISA buffer not known)
# Cells are plated with a density of 5000 cells/well in 384-well poly-D-lysin plates and incubated for 1 day at 37° C., 5% CO2 in DMEM medium, 10% FCS, 1×NEAA, Puromycin (0.5 μg/ml) and G418 (1 mg/ml). Then the medium is changed to a identical medium without FCS and containing Octanoate-BSA (final concentration 100 μM each) and compound in DMSO (final DMSO concentration 0,3%). After incubation for 5 hours acylghrelin in the medium is measured by ELISA.
# The medium sample is diluted 1:25 in Elisa buffer, a 25 μl aliquot is transferred to a 384-well ELISA plate previously washed 4 times with 100 μL wash buffer, and 25 μl tracer-solution is added. After incubation overnight (˜20 h) at 4° C. temperature the plate is washed 4 times with 100 μl wash-buffer per well. Finally 50 μl Ellman's reagent is added to each well and the plate is incubated in the dark for 20 minutes. The absorbance is measured at 405 nm in an Envision multilabel reader and the amount of acylated ghrelin is calculated according to a acylated ghrelin standard curve provided in the same plate.
# The analysis of the data is performed by calculation of the percentage of acyl-ghrelin produced in the presence of test compound compared to the amount of acyl-ghrelin produced in the vehicle control samples. An inhibitor of the GOAT enzyme will give values between 100% CTL (no inhibition) and 0% CTL (complete inhibition).
# IC50 values are calculated with Assay Explorer or other suited software based on curve fitting of results of 8 different compound concentrations.
row,IC50,SMILES
1,487 pM,"Cc1nc2nonc2c(N)c1Cc1ccc(C#N)c(F)c1 [Compound 4.31, 4-({7-Amino-5-methyl-[1,2,5]oxadiazolo[3,4-b]pyridin-6-yl}methyl)-2-fluorobenzonitrile]"
2,7970 pM,"Cc1nc2nonc2c(N)c1Cc1ccc(C(F)(F)F)c(C(N)=O)c1 [Compound 19.7, 5-({7-Amino-5-methyl-[1,2,5]oxadiazolo[3,4-b]pyridin-6-yl}methyl)-2-(trifluoromethyl) benzamide]"
3,43 pM,"Cc1nc2nonc2c(N)c1Cc1ccc(OC(F)(F)F)c(-c2cc[nH]n2)c1 [Compound 12.2, 5-Methyl-6-[3-(1H-pyrazol-3-yl)-4-trifluoromethoxy-benzyl]-[1,2,5]oxadiazolo[3,4-b]pyridin-7-ylamine]"
4,1390 pM,"Cc1nc2nonc2c(N)c1Cc1ccc(C(F)F)nc1 [Compound 4.30, 6-{[6-(Difluoromethyl)pyridin-3-yl]methyl}-5-methyl-[1,2,5]oxadiazolo[3,4-b]pyridin-7-amine]"
5,475 pM,"Nc1c(Cc2ccc(C(F)(F)F)cc2)c(Br)nc2nonc12 [Compound 24.1, 5-Bromo-6-{[4-(trifluoromethyl)phenyl]methyl}-[1,2,5]oxadiazolo[3,4-b]pyridin-7-amine]"
6,2420 pM,"N#Cc1nc2nonc2c(N)c1Cc1ccc(C(F)(F)F)cc1 [Compound 24.4, 7-Amino-6-{[4-(trifluoromethyl)phenyl]methyl}-[1,2,5]oxadiazolo[3,4-b]pyridine-5-carbonitrile]"
7,933 pM,"CNC(=O)c1cc(Cc2c(C)nc3nonc3c2N)ccc1Cl [Compound 15.4, 5-({7-Amino-5-methyl-[1,2,5]oxadiazolo[3,4-b]pyridin-6-yl}methyl)-2-chloro-N-methylbenzamide]"
8,294 pM,"Cc1nc2nonc2c(N)c1Cc1ccc(C(F)(F)F)cc1 [Compound 1.3, 5-Methyl-6-{[4-(trifluoromethyl)phenyl]methyl}-[1,2,5]oxadiazolo[3,4-b]pyridin-7-amine]"
9,1070 pM,"COc1ncccc1Cc1c(C)nc2nonc2c1N [Compound 2.11, 6-[(2-Methoxypyridin-3-yl)methyl]-5-methyl-[1,2,5]oxadiazolo[3,4-b]pyridin-7-amine]"
10,52 pM,"Cc1nc2nonc2c(N)c1Cc1ccc(C#N)c(OC(F)(F)F)c1 [Compound 4.43, 4-({7-Amino-5-methyl-[1,2,5]oxadiazolo[3,4-b]pyridin-6-yl}methyl)-2-(trifluoromethoxy)benzonitrile]"
11,718 pM,"Cc1nc2nonc2c(N)c1Cc1ccc(OCC2CC2(F)F)nc1 (stereo in doubt) [Compound 21.13, 6-[(6-{[(1R)-2,2-Difluorocyclopropyl]methoxy}pyridin-3-yl)methyl]-5-methyl-[1,2,5]oxadiazolo[3,4-b]pyridin-7-amine]"
12,432 pM,"Cc1nc2nonc2c(N)c1Cc1ccc(Cl)cc1 [Compound 22.1, 6-[(4-Chlorophenyl)methyl]-5-methyl-[1,2,5]oxadiazolo[3,4-b]pyridin-7-amine]"
13,494 pM,"Cc1nc2nonc2c(N)c1Cc1ccc(F)c(F)c1 [Compound 4.0, 6-[(3,4-Difluorophenyl)methyl]-5-methyl-[1,2,5]oxadiazolo[3,4-b]pyridin-7-amine]"
14,1490 pM,"Cc1nc2nonc2c(N)c1Cc1ccc(-c2ccco2)nc1 [Compound 12.9, 6-{[6-(Furan-2-yl)pyridin-3-yl]methyl}-5-methyl-[1,2,5]oxadiazolo[3,4-b]pyridin-7-amine]"
15,485 pM,"Nc1c(Cc2ccc(Br)cc2)c(Cl)nc2nonc12 [Compound 23.1, 6-[(4-Bromophenyl)methyl]-5-chloro-[1,2,5]oxadiazolo[3,4-b]pyridin-7-amine]"
16,232 pM,"Nc1c(Cc2ccc(C(F)(F)F)cc2)c(Cl)nc2nonc12 [Compound 23.2, 5-Chloro-6-{[4-(trifluoromethyl)phenyl]methyl}-[1,2,5]oxadiazolo[3,4-b]pyridin-7-amine]"
17,35700 pM,"Cc1nc2nonc2c(N)c1Cc1cnc(OC(F)F)c(C#N)c1 [Compound 4.49, 5-({7-Amino-5-methyl-[1,2,5]oxadiazolo[3,4-b]pyridin-6-yl}methyl)-2-(difluoromethoxy)pyridine-3-carbonitrile]"
18,81 pM,"CCC(C#N)(CC)c1ccc(Cc2c(C)nc3nonc3c2N)cn1 [Compound 4.25, 2-[5-({7-Amino-5-methyl-[1,2,5]oxadiazolo[3,4-b]pyridin-6-yl}methyl)pyridin-2-yl]-2-ethylbutanenitrile]"
19,1270 pM,"Cc1nc2nonc2c(N)c1Cc1ccc(Br)nc1 [Compound 4.29, 6-[(6-Bromopyridin-3-yl)methyl]-5-methyl-[1,2,5]oxadiazolo[3,4-b]pyridin-7-amine]"
20,5360 pM,Cc1nc2nonc2c(N)c1Cc1cccn2c(C(F)(F)F)nnc12 [Compound 4.10]
21,4630 pM,"Cc1nc2nonc2c(N)c1Cc1ccc(-n2cc(C#N)cn2)nc1 [Compound 20.1, 1-[5-({7-Amino-5-methyl-[1,2,5]oxadiazolo[3,4-b]pyridin-6-yl}methyl)pyridin-2-yl]-1H-pyrazole-4-carbonitrile Trifluoro-Acetic Acid Salt]"
22,1090 pM,"Cc1nc2nonc2c(N)c1Cc1cccc(OCF)c1 [Compound 8.1, 6-{[3-(Fluoromethoxy)phenyl]methyl}-5-methyl-[1,2,5]oxadiazolo[3,4-b]pyridin-7-amine]"
23,178 pM,"COc1cc(Cc2c(Cl)nc3nonc3c2N)ccc1C#N [Compound 23.7, 4-({7-Amino-5-chloro-[1,2,5]oxadiazolo[3,4-b]pyridin-6-yl}methyl)-2-methoxybenzonitrile]"
24,139 pM,"COc1cc(Cc2c(Cl)nc3nonc3c2N)ccc1C(F)(F)F [Compound 23.4, 5-Chloro-6-{[3-methoxy-4-(trifluoromethyl)phenyl]methyl}-[1,2,5]oxadiazolo[3,4-b]pyridin-7-amine]"
25,1520 pM,"Cc1nc2nonc2c(N)c1Cc1ccc(-c2cscc2C#N)nc1 [Compound 12.4, 4-[5-(7-Amino-5-methyl-[1,2,5]oxadiazolo[3,4-b]pyridin-6-ylmethyl)-pyridin-2-yl]-thiophene-3-carbonitrile]"
26,2790 pM,"Cc1nc2nonc2c(N)c1Cc1ccc(-c2ccnn2C)n2cnnc12 [Compound 12.13, 5-Methyl-6-[5-(2-methyl-2H-pyrazol-3-yl)-[1,2,4]triazolo[4,3-a]pyridin-8-ylmethyl]-[1,2,5]oxadiazolo[3,4-b]pyridin-7-ylamine]"
27,416 pM,"Cc1nc2nonc2c(N)c1Cc1ccc(C#N)cc1 [Compound 2.8, 4-({7-Amino-5-methyl-[1,2,5]oxadiazolo[3,4-b]pyridin-6-yl}methyl)benzonitrile]"
28,92 pM,"COc1cc(OC(F)(F)F)ccc1Cc1c(C)nc2nonc2c1N [Compound 2.1, 6-{[2-Methoxy-4-(trifluoromethoxy)phenyl]methyl}-5-methyl-[1,2,5]oxadiazolo[3,4-b]pyridin-7-amine]"
29,147 pM,"COc1ccc(Cc2c(C)nc3nonc3c2N)cc1 [Compound 4.53, 6-[(4-Methoxyphenyl)methyl]-5-methyl-[1,2,5]oxadiazolo[3,4-b]pyridin-7-amine]"

row,SMILES,IC50
1,"Cc1nc2nonc2c(N)c1Cc1ccc(C#N)c(Br)c1 [Compound 4.45, 4-(7-Amino-5-methyl-[1,2,5]oxadiazolo[3,4-b]pyridin-6-ylmethyl)-2-bromo-benzonitrile]",233 pM
